Results: ChEMBL document CHEMBL4811257, “Dipeptide inhibitors of the prostate specific membrane antigen (PSMA): A comparison of urea and thiourea derivatives” (Bioorg Med Chem Lett, 2021)

Experiments:
[1] = Stability of the compound in PBS at pH 7 measured for 48 hrs by 1H-NMR analysis; type: physicochemical; conditions: buffer, pH 7, 48 h
[2] = Stability of the compound in presence of GCPII/PSMA expressing human DU-145 cells by 1H-NMR analysis; type: ADME, cell-based
[3] = molecular target: Glutamate carboxypeptidase 2 (Homo sapiens, UniProt Q04609); experiment: Inhibition of GCPII (unknown origin) expressed in DU-145 cells after 1 hr by [67Ga]Ga-DOTA-PSMA competitive binding assay with gamma counting
Sequence of Glutamate carboxypeptidase 2 (Q04609 whole entry): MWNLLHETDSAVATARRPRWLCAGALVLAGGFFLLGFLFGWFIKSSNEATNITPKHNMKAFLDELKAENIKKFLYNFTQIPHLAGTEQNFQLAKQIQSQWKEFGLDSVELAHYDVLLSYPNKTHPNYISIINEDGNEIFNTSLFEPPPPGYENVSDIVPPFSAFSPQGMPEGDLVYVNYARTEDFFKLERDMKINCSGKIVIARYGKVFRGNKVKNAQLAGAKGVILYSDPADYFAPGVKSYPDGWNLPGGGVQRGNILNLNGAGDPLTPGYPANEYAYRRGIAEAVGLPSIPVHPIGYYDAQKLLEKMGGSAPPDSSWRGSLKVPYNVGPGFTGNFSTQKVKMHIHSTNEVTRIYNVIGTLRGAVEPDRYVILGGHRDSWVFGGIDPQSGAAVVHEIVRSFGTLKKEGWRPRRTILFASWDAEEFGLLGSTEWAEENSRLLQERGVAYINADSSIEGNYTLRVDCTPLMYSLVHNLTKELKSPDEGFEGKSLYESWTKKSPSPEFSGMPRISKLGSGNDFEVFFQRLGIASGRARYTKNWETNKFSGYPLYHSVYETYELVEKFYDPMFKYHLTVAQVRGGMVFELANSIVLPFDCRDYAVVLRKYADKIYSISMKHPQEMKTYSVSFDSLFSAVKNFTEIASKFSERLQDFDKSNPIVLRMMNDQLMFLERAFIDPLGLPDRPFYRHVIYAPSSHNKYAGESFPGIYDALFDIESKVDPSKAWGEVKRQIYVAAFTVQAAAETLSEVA

With O=C(O)CC[C@H](NC(=O)N[C@@H](CCC(=O)O)C(=O)O)C(=O)O the Stabilty [1] was “Stable”, the Stabilty [2] was “Stable” and the IC50 [3] was 1.34 µM.

With O=C(O)CC[C@H](NC(=S)N[C@@H](CCC(=O)O)C(=O)O)C(=O)O the Stabilty [1] was “Stable”, the Stabilty [2] was “Stable” and the IC50 [3] was 135 µM.
